Literature values as cited in US20070275934A1, “Treatment of pancreatic cancer with active vitamin d compounds in combination with other treatments” (priority 2004, published 2007).

System: patients with refractory malignancies
Conditions: weekly HDPA, Beer et al. 2001

**Q.** Which results are given for C=C1/C(=C\C=C2/CCC[C@]3(C)[C@@H]([C@H](C)CCCC(C)(C)O)CC[C@@H]23)C[C@@H](O)C[C@@H]1O [calcitriol, 1α,25-dihydroxyvitamin D3]?
**A.** Dose-limiting toxicity: no dose-limiting toxicity; Mean peak calcitriol levels: within the therapeutic range
